Source: patent publication US20260176289A1, “SMALL MOLECULE INHIBITORS OF KRAS PROTEINS” (Merck Sharp & Dohme LLC, priority 2022, published 2026)
pIC50: −log10 of the molar value. Like-named read-outs stand apart in the source and are kept apart here.

What was measured:
KRAS-G12D = KRAS-G12D (Homo sapiens, UniProt P01116, G12D); assay: SOS-catalyzed nucleotide exchange assay (Procedure A, TR-FRET), KRAS-G12D; format: biochemical; details: nucleotide exchange, read-out: KRAS G12D GNE IC50
Method in brief: (§1)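 Signal ratio (520/495 nm, excitation 340 nm) reports Bodipy-GDP retention on biotinylated RAS after SOS-catalyzed exchange with 3 mM GTP. SOS was 40 nM, except 160 nM for G12V. Room-temperature exchange lasted 60 min (90 min for G12V), following a 60 min compound preincubation.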

[1] = biological target: KRAS-G12C (C51S/C80L/C118S) (Homo sapiens, UniProt P01116, C118S/C51S/C80L/G12C); assay: SOS-catalyzed nucleotide exchange assay (Procedure A, TR-FRET), KRAS-G12C; format: biochemical; details: nucleotide exchange, Procedure A; read-out: KRAS G12C GNE IC50
KRAS-G12C (C51S/C80L/C118S), sequence (P01116 with tags, fused parts or gaps isoform P01116-2 G12C/C51S/C80L/C118S): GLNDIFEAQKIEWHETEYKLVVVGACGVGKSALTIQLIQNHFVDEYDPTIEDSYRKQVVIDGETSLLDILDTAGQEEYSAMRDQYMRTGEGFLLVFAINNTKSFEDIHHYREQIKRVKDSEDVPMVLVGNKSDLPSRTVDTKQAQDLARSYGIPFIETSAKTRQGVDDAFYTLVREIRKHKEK
Method in brief: as §1

PANC08.13 cells = assay: Cellular phospho-ERK assay, PANC08.13 cells (homozygous KRAS-G12D); format: cell-based; details: Homo sapiens, read-out: PANC-08.13 pERK IC50
Procedure: Procedure for Cellular Phospho-ERK Assay in KRAS Wild Type and Mutant (G12D, G12V) Cell Lines
MKN-1 cells (JCRB JCRB0252) containing amplified wild-type KRAS, were cultured in growth medium that contains RPMI 1640-GlutaMAX™-I (ThermoFisher Scientific 61870) containing 10% heat inactivated fetal bovine serum (ThermoFisher Scientific 10091148), 1 mM sodium pyruvate and 10 mM HEPES. PANC08.13 cells (ATCC® CRL-2551™), containing homozygous KRAS-G12D activating mutation, were cultured in growth medium made of RPMI1640-GlutaMAX™-I (ThermoFisher Scientific 61870) containing 15% heat inactivated fetal bovine serum (ThermoFisher Scientific 10091148)). AsPC-1 cells (ATCC® CRL-1682™), containing homozygous KRAS-G12D activating mutation, were cultured in T150 flask in growth medium (RPMI medium 1640-GlutaMAX™-I (ThermoFisher Scientific 61870) containing 10% fetal bovine serum (ThermoFisher Scientific 10091148)). SW620 cells (ATCC® […]), containing homozygous KRAS-G12V activating mutation, were cultured in growth medium that contains RPMI 1640-GlutaMAX™-I (ThermoFisher Scientific 61870) containing 10% heat inactivated fetal bovine serum (ThermoFisher Scientific 10091148).
Cells for the assay were harvested in growth medium after TrypLE (ThermoFisher scientific 12604021) digestion and were seeded in a 384-well collagen coated cell culture plate (Corning 356702) at a density of 10,000-15,000 cells/20 μL/well, and incubated at 37° C., 5% CO2 overnight. The compound (with 10 mM stock concentration) dose-response titrations were prepared [30 μM final ERK detection assay concentration and 1:3 dilutions, 10-point dose response] and appropriate amounts (270 nL) of test compounds were dispensed in a 384-well intermediate plate using an Echo 550 liquid handler. 30 μL/well of RPMI medium 1640-GlutaMAX™—I was added to the intermediate plate and the contents of the intermediate plate (10 μL/well) were then transferred to the 384-well collagen coated cell culture plate, which was incubated at 37° C., 5% CO2 for 2 hours. After removal of medium from the collagen coated cell culture plate, cells were lysed in lysis buffer from Alpha SureFire® Ultra™ Multiplex p-ERK and total ERK assay kit (PerkinElmer MPSU-PTERK) containing Halt™ Protease and Phosphatase inhibitor cocktail (ThermoFisher Scientific 78446) at room temperature with constant shaking at 300 rpm for 30 minutes. The cell lysates were then transferred to an OptiPlate-384 plate (PerkinElmer 6005620), and the phosphorylation of ERK (p-ERK) and total ERK levels were detected by Alpha SureFire® Ultra™ Multiplex p-EEK kit and total ERK assay kit (PerkinElmer MPSU-PTERK) following the manufacturer's protocol. Assay plates were read on a En Vision Multimode Plate Reader (PerkinElmer), and the ratio of p-ERK vs. total ERK in each well was used as the final readout. Dose response curves were analyzed using a 4-parameter logistic model to calculate IC50 values using Spotfire software.

KRAS-G13D = KRAS-G13D (Homo sapiens, UniProt P01116, G13D); assay: SOS-catalyzed nucleotide exchange assay (Procedure A, TR-FRET), KRAS-G13D; format: biochemical; details: nucleotide exchange, Procedure A; read-out: KRAS G13D GNE IC50
KRAS-G13D, sequence (P01116 with tags, fused parts or gaps isoform P01116-2 G13D): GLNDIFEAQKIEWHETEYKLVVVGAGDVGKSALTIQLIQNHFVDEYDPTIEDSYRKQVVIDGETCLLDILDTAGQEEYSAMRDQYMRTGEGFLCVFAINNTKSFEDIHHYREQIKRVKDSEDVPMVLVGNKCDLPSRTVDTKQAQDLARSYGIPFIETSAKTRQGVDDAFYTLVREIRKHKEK

KRAS-WT = KRAS-WT (Homo sapiens, UniProt P01116); assay: SOS-catalyzed nucleotide exchange assay (Procedure A, TR-FRET), KRAS-WT; format: biochemical; details: nucleotide exchange, read-out: KRAS WT GNE IC50
KRAS-WT, sequence (P01116 with tags, fused parts or gaps isoform P01116-2): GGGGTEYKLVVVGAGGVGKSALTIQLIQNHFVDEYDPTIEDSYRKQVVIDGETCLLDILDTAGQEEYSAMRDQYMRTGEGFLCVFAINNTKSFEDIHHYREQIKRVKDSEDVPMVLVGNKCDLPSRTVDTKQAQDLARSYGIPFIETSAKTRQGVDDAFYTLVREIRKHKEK
Method in brief: as §1

KRAS-G12V = KRAS-G12V (Homo sapiens, UniProt P01116, G12V); assay: SOS-catalyzed nucleotide exchange assay (Procedure A, TR-FRET), KRAS-G12V; format: biochemical; details: nucleotide exchange, read-out: KRAS G12V GNE IC50
KRAS-G12V, sequence (P01116 with tags, fused parts or gaps isoform P01116-2 G12V): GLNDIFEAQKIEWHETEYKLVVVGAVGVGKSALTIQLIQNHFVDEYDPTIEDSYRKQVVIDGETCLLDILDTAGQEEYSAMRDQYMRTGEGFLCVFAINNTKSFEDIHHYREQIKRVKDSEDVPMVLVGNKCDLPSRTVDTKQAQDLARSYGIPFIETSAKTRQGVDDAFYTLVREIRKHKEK
Method in brief: as §1

MKN-1 cells = assay: Cellular phospho-ERK assay, MKN-1 cells (amplified wild-type KRAS); format: cell-based; details: Homo sapiens, amplified wild-type KRAS, 2 hours, read-out: MKN1 pERK IC50
Method in brief: (§2)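 Overnight-plated cells on collagen received test compound (up to 30 μM final, threefold steps, ten concentrations) for two hours. After lysis at room temperature, phosphorylated and total ERK were quantified together by Alpha SureFire, and IC50 is based on the phospho-to-total signal ratio.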

SW620 cells = assay: Cellular phospho-ERK assay, SW620 cells (homozygous KRAS-G12V); format: cell-based; details: Homo sapiens, SW-620, KRAS-G12V, 2 hours, read-out: SW620 pERK IC50
Method in brief: as §2

[2] = PANC-08-13, 2 hours compound incubation

KRAS-G12D, sequence (P01116 with tags, fused parts or gaps isoform P01116-2 G12D): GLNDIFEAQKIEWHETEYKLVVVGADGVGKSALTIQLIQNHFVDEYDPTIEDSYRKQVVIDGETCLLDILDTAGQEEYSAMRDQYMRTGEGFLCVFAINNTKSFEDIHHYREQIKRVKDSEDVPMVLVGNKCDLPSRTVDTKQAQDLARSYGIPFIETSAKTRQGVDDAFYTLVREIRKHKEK

Row | Structure (SMILES) | pIC50 (KRAS-G12D) | pIC50 [1] | pIC50 (PANC08.13 cells; [2]) | pIC50 (KRAS-G13D) | pIC50 (KRAS-WT) | pIC50 (KRAS-G12V) | pIC50 (PANC08.13 cells; PANC-08-13, KRAS-G12D, 2 hours) | pIC50 (MKN-1 cells) | pIC50 (SW620 cells)
1 | Cc1cc2[nH]ncc2c(-c2nccc3c2sc2nc(OC[C@@]45CCCN4C[C@H](F)C5)nc(NC4COC4)c23)c1C(F)(F)F [Ex-184, 2-(((2R,7aS)-2-fluoro-tetrahydro-1H-pyrrolizin-7a(5H)-yl)methoxy)-8-(6-methyl-5-(trifluorometh-yl)-1H-indazol-4-yl)-N-(oxetan-3-yl)pyrido [4′,3′:4,5]thieno[2,3-d] pyrimidin-4-amine] | 6.23 | 7.01 | 6.09 | 6.18 | 6.09 | 6.71 | – | – | –
2 | C[C@@]1(O)COCCN(c2nc(OC[C@@]34CCCN3C[C@H](F)C4)nc3sc4c(-c5c(C(F)F)ccc6[nH]ncc56)nccc4c23)C1 [Ex-134] | 5.94 | 6.19 | 5.57 | 5.64 | 5.14 | 6.06 | – | – | –
3 | Cc1cc2[nH]ncc2c(-c2nccc3c2sc2nc(OC[C@@]45CCCN4C[C@H](F)C5)nc(N4CCOC(CO)C4)c23)c1C(F)(F)F (stereo partly drawn) [Ex-180, (4-(2-(((2R,7aS)-2-fluoro-tetrahydro-1H-pyrrolizin-7a(5H)-yl)methoxy)-8-(6-methyl-5-(trifluorometh-yl)-1H-indazol-4-yl)pyrido [4′,3′:4,5]thieno[2,3-d]pyr-imidin-4-yl)morpholin-2-yl)methanol] | 5.64 | 7.11 | 5.41 | 6.09 | 6.14 | 6.37 | – | – | –
4 | Cc1cc(-c2nccc3c2sc2nc(OC[C@@]45CCCN4C[C@H](F)C5)nc(N4CCOC[C@@](C)(O)C4)c23)c2cn[nH]c2c1 [Ex-37, (S)-4-(2-(((2R,7aS)-2-fluorotetrahydro-1H-pyrrolizin-7a(5H)-yl)methoxy)-8-(6-methyl-1H-indazol-4-yl)pyrido[4′,3′:4,5]thieno[2,3-d]pyrimidin-4-yl)-6-methyl-1,4-oxazepan-6-ol] | 5.84 | 5.83 | – | 5.61 | 5.51 | 5.83 | 5.74 | – | –
5 | Cc1n[nH]c2cc(Cl)c(C(F)F)c(-c3nccc4c5c(N6CCOC[C@@](C)(O)C6)nc(OC[C@@]67CCCN6C[C@H](F)C7)nc5n(C)c34)c12 (single isomer, unassigned) [Ex-13] | 5.44 | 5.83 | – | 5.31 | 5.56 | 5.78 | 5.37 | – | –
6 | Cc1cc2[nH]ncc2c(-c2nccc3c4c(N5CC6CCC(F)(C5)N6)nc(OC[C@@]56CCCN5C[C@H](F)C6)nc4n(C)c23)c1C(F)(F)F (single isomer, unassigned) [Ex-22] | 5.61 | 6.72 | – | 6.34 | 6.01 | 6.39 | 5.45 | – | –
7 | Cc1cc2[nH]nc(C#N)c2c(-c2nccc3c4c(N5CCOC[C@@](C)(O)C5)nc(OC[C@@]56CCCN5C[C@H](F)C6)nc4n(C)c23)c1C(F)F (single isomer, unassigned) [Ex-9] | 6.21 | 6.25 | – | 6.25 | 5.87 | 6.24 | 5.77 | – | –
8 | CCn1c2nc(OC[C@@]34CCCN3C[C@H](F)C4)nc(N3CCOC[C@@](C)(O)C3)c2c2ccnc(-c3c(C(F)(F)F)c(C)cc4[nH]ncc34)c21 [Ex-24, (6S)-4-(9-ethyl-2-(((2R,7aS)-2-fluorotetrahydro-1H-pyrrolizin-7a(5H)-yl)methoxy)-8-(6-methyl-5-(trifluoromethyl)-1H-indazol-4-yl)-9H-pyrido[4′,3′:4,5]pyrrolo[2,3-d]pyrimidin-4-yl)-6-methyl-1,4-oxazepan-6-ol] | 6.15 | 6.65 | – | 5.99 | 6.03 | 6.31 | 6.13 | – | –
9 | Cc1cc2[nH]nc(C#N)c2c(-c2nccc3c2sc2nc(OC[C@@]45CCCN4C[C@H](F)C5)nc(N4CCOC[C@@](C)(O)C4)c23)c1C(F)(F)F [Ex-150, 4-(2-(((2R,7aS)-2-fluorotetrahydro-1H-pyrrolizin-7a(5H)-yl)methoxy)-4-((S)-6-hydroxy-6-methyl-1,4-oxazepan-4-yl)pyrido[4′,3′:4,5]thieno[2,3-d]pyrimidin-8-yl)-6-methyl-5-(trifluoromethyl)-1H-indazole-3-carbonitrile] | 5.92 | 6.13 | 6.01 | 5.84 | 5.73 | 5.67 | – | – | –
10 | C#Cc1c(F)ccc2cc(N)nc(-c3nccc4c5c(N6CCOC[C@@](C)(O)C6)nc(OC[C@@]67CCCN6C[C@H](F)C7)nc5n(C)c34)c12 [Ex-17, (S)-4-(8-(3-amino-8-ethynyl-7-fluoroisoquinolin-1-yl)-2-(((2R,7aS)-2-fluorotetrahydro-1H-pyrrolizin-7a(5H)-yl)methoxy)-9-methyl-9H-pyrido[4′,3′:4,5]pyrrolo[2,3-d]pyrimidin-4-yl)-6-methyl-1,4-oxazepan-6-ol] | 5.85 | 6.52 | – | 6.23 | 5.74 | 5.99 | 5.43 | – | –
11 | CCc1c(C)cc2[nH]ncc2c1-c1nccc2c1sc1nc(OC[C@@]34CCCN3C[C@H](F)C4)nc(N3CCOC[C@@](C)(O)C3)c12 [Ex-36, (6S)-4-(8-(5-ethyl-6-methyl-1H-indazol-4-yl)-2-(((2R,7aS)-2-fluorotetrahydro-1H-pyrrolizin-7a(5H)-yl)methoxy)pyrido[4′,3′:4,5]thieno[2,3-d]pyrimidin-4-yl)-6-methyl-1,4-oxazepan-6-ol] | 6.79 | 6.90 | – | 6.83 | 6.48 | 6.27 | 6.57 | – | –
12 | Cc1cc2[nH]ncc2c(-c2nccc3c4c(N5CCOC[C@@](C)(O)C5)nc(OC[C@]5(CN(C)C)CC5(F)F)nc4n(C)c23)c1C(F)(F)F [Ex-20, (6S)-4-(2-(((R)-1-((dimethylamino)methyl)-2,2-difluorocyclopropyl)methoxy)-9-methyl-8-(6-methyl-5-(trifluoromethyl)-1H-indazol-4-yl)-9H-pyrido[4′,3′:4,5]pyrrolo[2,3-d]pyrimidin-4-yl)-6-methyl-1,4-oxazepan-6-ol] | 7.42 | – | – | – | 6.90 | 7.20 | 7.09 | 6.82 | 6.27
